Measured values reported in patent publication US9199948B2, “1,3-benzoxazol-2(3H)-ones and their use as medicaments and cosmetics” (DR. AUGUST WOLFF GMBH & CO. KG ARZNEIMITTEL, priority 2012, dated 2015).

Tested on: Arachidonoylethanolamide Transport (AEAT) in U937 cells
Test: Cellular uptake of [3H]-AEA (inhibition of arachidonoylethanolamide transport, AEAT)
Assay type: cell-based
Conditions: Homo sapiens, U-937, 100 nM AEA, 15 min pre-incubation, 15 min uptake at 37° C.
Procedure: C. Cellular Uptake of [^3H]-AEA
Human lymphoma U937 cells were grown in RPMI 1640 medium (Invitrogen, Basel, Switzerland) supplemented with 10% fetal bovine serum, […] fungizone (amphotericin B), 100 units/ml penicillin, 100 µg/ml streptomycin, and 2 mM L-glutamine (all from Invitrogen) and selected for the cellular AEA uptake assay. 2.5×10^6 cells were collected and suspended in 250 μl of RPMI 1640 medium (Invitrogen, Basel, Switzerland) at 37° C. using glass silanized vials. Cells were pre-incubated 15 min at 37° C. in presence of test compounds in a concentration range of 10^−11−10^−5 M or in presence of the same amount (5 μl) of vehicle control (DMSO). Then a mixture of 0.5 nM [^3H]-AEA (60 Ci/mmol) (American Radiolabeled Chemicals, Inc., San Louis, Mo., US) and 99.5 nM of nonradioactive AEA (Tocris Cookson Ltd., Bristol, UK) resulting in a final concentration of 100 nM AEA was added and samples were incubated at 37° C. for another 15 minutes. […] Radioactivity was measured using a Perkin Elmer 1450 Microbeta TRILUX liquid scintillation counter. Results were expressed as % of AEA uptake versus cells treated with solvent and the EC50 and IC50 values were calculated from the sigmoidal curves, which were generated using the GraphPad Prism 5.0 (GraphPad Software, San Diego, Calif., US).

EC50	SMILES
146 nM	CCCCCCC/C=C/C=C/CNC(=O)c1ccc2oc(=O)[nH]c2c1 [Example 4]
112 nM	Cn1c(=O)oc2ccc(NC(=O)/C=C/C=C/CCc3ccccc3)cc21 [Example 10]
